Results taken from patent US6077845A, “Acridin derivatives” (Gruenenthal GmbH, priority 1998, dated 2000).
Counter-ions that a name gives are not always drawn.

Molecular target: T1, δ-opiate receptor (Rattus norvegicus, UniProt P33533)
T1 construct: from tissue; host or cells: rat brain (male Wistar) without cerebellum and medulla oblongata, membrane homogenate
Experiment: δ-Opiate receptor binding ([3H]-2-D-Ala-deltorphin II displacement, rat brain membrane homogenate)
Design: species or system rat (male Wistar)
Conditions: 1 nmole/l [3H]-2-D-Ala-deltorphin II, 90 minutes at 37° C., pH 7.4, mean ± standard deviation of three independent tests, Ki from IC50 by Cheng-Prussoff
Procedure: δ-Opiate receptor binding investigations
Tests to determine the affinity of the compounds of formula I according to the invention for δ-opiate receptors were performed on meninx homogenates (homogenates of rat's brain, without the cerebellum and medulla oblongata, taken from male Wistar rats).
For this purpose, freshly prepared rat brains were each homogenised, while being cooled in ice, in 50 mmoles/l Tris-HCl (pH 7.4) and were centrifuged for 10 minutes at 5000 g and […]. After decantation and after rejecting the supernatant liquor, followed by renewed take-up and homogenization of the membrane sediment in 50 mmoles/l Tris-HCl (pH 7.4), the homogenate was subsequently centrifuged for 20 minutes at 20,000 g and […]. This washing step was repeated again. Thereafter, the supernatant liquor was decanted and the membrane sediment was homogenized in cold 50 mmoles/l Tris-HCl, 20% glycerol (w/v), 0.01% bacitracin (w/v) (pH 7.4) and aliquots thereof were frozen until required for testing. For the receptor binding tests, the aliquots were thawed and were diluted 1:10 with the binding test buffer. A solution of […] MgCl2 (pH 7.4), supplemented by 0.1 (w/v) bovine serum albumin, was used as the buffer in the binding tests; 1 nmole/l [^3 H]-2-D-Ala-deltorphin II was used as the radioactive ligand. The proportion of non-specific binding was determined in the presence of 10 μmoles/l naloxon.
In further batches, the compounds according to the invention were added in a series of concentrations and the displacement of the radioactive ligand from its specific binding site was determined. The batches concerned, which were each tested in triplicate, were incubated for 90 minutes at 37° C. and were subsequently harvested in order to determine the radioactive ligand which was bound to the membrane homogenate by filtration through a glass fibre filter (GF/B). The glass fiber filter discs were dried, and the radioactivity thereof was measured in a β-counter after adding a scintillator.
The affinity of the compounds according to the invention for the δ-opiate receptor was calculated as the IC50 value according to the law of mass action, by means of nonlinear regression. Ki values were calculated from the IC50 values using the Cheng-Prussoff equation. The Ki values in Table 1 are given as the mean value±standard deviation of three tests which were independent of each other.

T1 sequence (P33533 whole entry): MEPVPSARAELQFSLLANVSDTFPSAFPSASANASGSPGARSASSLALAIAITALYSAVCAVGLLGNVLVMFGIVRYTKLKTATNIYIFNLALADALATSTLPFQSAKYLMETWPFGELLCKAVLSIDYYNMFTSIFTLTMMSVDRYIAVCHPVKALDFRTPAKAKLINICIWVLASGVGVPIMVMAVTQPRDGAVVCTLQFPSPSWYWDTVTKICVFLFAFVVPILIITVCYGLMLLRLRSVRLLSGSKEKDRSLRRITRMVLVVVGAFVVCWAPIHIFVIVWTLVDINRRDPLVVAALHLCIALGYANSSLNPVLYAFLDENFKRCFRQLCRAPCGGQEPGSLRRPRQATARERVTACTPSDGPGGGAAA

| SMILES | Ki |
| --- | --- |
| CN(C)CC1=C(c2cccc(O)c2)c2cc3ccccc3nc2CC1 [[3-(2-dimethylaminomethyl-3,4-dihydro-acridin-1-yl)]-phenol hydrochloride] | 3.84 nM |
| COc1cccc([C@@H]2c3cc4ccccc4nc3CC[C@H]2CN(C)C)c1 (racemic) [rac-trans-[1-(3-methoxy-phenyl)-1,2,3,4-tetrahydro-acridin-2-yl-methyl]-dimethylamine hydrochloride] | 127 nM |
| CN(C)CC1=C(c2cccc(O)c2)c2cc3ccccc3nc2CC1(C)C [3-(2-dimethylaminomethyl-3,3-dimethyl-3,4-dihydro-acridin-1-yl)-phenol hydrochloride] | 29 nM |
| CN(C)C[C@H]1CCc2nc3ccccc3cc2[C@@H]1c1cccc(O)c1 (relative stereo) [rac-trans-[3-(2-dimethylaminomethyl-1,2,3,4-tetrahydro-acridin-1-yl)]-phenol hydrochloride] | 4.17 nM |
| COc1cccc(C2=C(CN(C)C)CCc3nc4ccccc4cc32)c1 [[1-(3-methoxy-phenyl)-3,4-dihydro-acridin-2-yl-methyl]-dimethylamine hydrochloride] | 133 nM |
